Assay results reported in PMC4815073, “Targeting of tubulin polymerization and induction of mitotic blockage by Methyl 2-(5-fluoro-2-hydroxyphenyl)-1H-benzo[d]imidazole-5-carboxylate (MBIC) in human cervical cancer HeLa cell” (Journal of Experimental & Clinical Cancer Research : CR, 2016).

Key:
[1] = tested on: A549 cells; experiment: MTT cytotoxicity assay, A549; type: cell-based, human; settings: for IC50: Homo sapiens, MTT
Source text: The human cervical cancer cell-line, HeLa (CCL-2.2; ATCC, Manassas, VA), HCT-116 (CCL-247; ATCC, Manassas, VA), A549 (CCL-185; ATCC, Manassas, VA), HepG-2 (HB-8065; ATCC, Manassas, VA) and WRL-68 (CL-48; ATCC, Manassas, VA), were obtained from American Type Culture Collection (ATCC). HeLa, A549, HepG2 and WRL68 cells were maintained in Dulbecco’s Modified Eagle Medium (DMEM, Life Technologies, Inc, Rockville, MD). HCT-116 was obtained in McCoy’s 5a Medium Modified (Life Technologies, Inc, Rockville, MD) supplemented with 10 % fetal bovine serum and 1 % penicillin/streptomycin. Cells were incubated at 37 °C in a humidified cell culture 5 % CO2 incubator. Cells were passaged until reaching 70-80-% confluency for experimental purposes.
Cytotoxicity of MBIC was estimated by MTT assay. Briefly, 1 × 10^4 cells/well were seeded in a 96-well plate and incubated at 37 °C in 5 % CO2. After 24 h, cells were treated with different concentrations (0.02, 0.04, 0.1, 0.2, 0.4, 0.8, 1.5, 3, 6, 12, 25, 50 μM) of MBIC. 0.01 % DMSO was used as vehicle control. Cells were incubated for 24 and 48 h at 37 °C. Subsequently, 50 μl/well of 3-(4,5-dimethylthiazol-2-yl)-2,5-diphenyltetrazolium bromide (MTT, 2 mg/ml) was added and incubated for 2 h. After the incubation, the media was discarded and 100 μl DMSO was replaced into each well to dissolve the formazan crystal. The colorimetric assay was quantified at 570 nm wavelength using Chameleon V microplate reader (Hidex, Turku, Finland). The anti-proliferation activity of MBIC was expressed as an IC50 value. The percentage of cell viability was calculated as described previously.

[2] = tested on: HeLa cells; experiment: Multiparameter cytotoxicity assay (Cellomics HCS); type: cell-based, human; settings: 24 h
Procedure: The critical apoptotic events in cervical cancer including cell permeability, mitochondrial membrane potential (MMP), cytochrome c release and total nuclear intensity after treatment with MBIC were determined using the Cellomics Multiparameter Cytotoxicity 3 Kit. Briefly, 1 × 10 ^4 cells/well were seeded in a 96-well plate and incubated for 24 h prior to treatment with MBIC at various concentrations. At 24 h post treatment, cells were stained with cell permeability and MMP dye and further incubated for 1 h. Stained cells were fixed and permeabilized with 4 % formaldehyde and 0.1 % Triton X-100 in PBS, respectively. Cells were washed twice with 1X PBS prior to blocking with 3 % bovine serum albumin.
Cells were rinsed twice with Wash Buffer I (1X PBS) and incubated with 50 μl/well of Cytochrome c primary antibody. After 60 min, the plate was washed with 1X Wash Buffer and subsequently, 50 μl of goat anti-mouse secondary antibodies conjugated with DyLight 649 were added into each well. Cells were rinsed twice with Wash Buffer I (1X PBS). Hoechst 33342 was added into the staining solution to stain the nucleus. Stained cells in the 96-well plates were analyzed using ArrayScan High Content Screening (HCS) system (Thermo Scientific, USA).

## COC(=O)c1ccc2[nH]c(-c3cc(F)ccc3O)nc2c1 [MBIC, Methyl 2-(5-fluoro-2-hydroxyphenyl)-1H-benzo[d]imidazole-5-carboxylate]
[1]; A549, 24 hours
  IC50: 1290 ± 70 nM
[1]; A549, 48 hours
  IC50: 530 ± 100 nM
[1]; IC50 WRL-68 / IC50 A549, 24 hours
  SI (Selectivity Index): 7.82
[1]; IC50 WRL-68 / IC50 A549, 48 hours
  SI (Selectivity Index): 13.50
[2]; 0.2 and 0.4 μM
  cytochrome c release: considerable elevation
[2]; 0.2 and 0.42 μM
  cell number (loss of cells): dose-dependent loss of cells
  membrane permeability: increase of membrane permeability
  mitochondrial membrane potential (MMP, Δψm): exhaustion of MMP
